Activity calls are given as the source filed them. The rule behind the calls is not given here.
What was measured:
[1] = biological target: Cell division control protein 42 homolog (Homo sapiens) (UniProt P60953); assay: Inhibition of Cdc42 in human MDA-MB-435 cells assessed as remaining enzyme activity at 5 uM by Western blotting based pulldown assay (reference value: 100%); assay type: cell-based
[2] = biological target: Ras-related C3 botulinum toxin substrate 3 (Homo sapiens) (UniProt P60763); assay: Inhibition of Rac3 in human MDA-MB-435 cells assessed as remaining enzyme activity at 1 uM by Western blotting based pulldown assay (reference value: 100%); assay type: cell-based
[3] = tested on: Ras-related C3 botulinum toxin substrate 1 (Homo sapiens), P63000 [G15A]; assay: Inhibition of glutathione agarose conjugated Rac1 G15A mutant (unknown origin) in assessed as reduction in purified Tiam-1 DH/PH domain association with Rac1 G15A mutant at […] by Western blotting based pulldown assay relative to control
[4] = Toxicity in athymic nude mouse assessed as effect on gross indications of toxicity at 1 mg/kg, ip dosed once week for 9 weeks; assay type: organism-based; conditions: in vivo, 1512 h
[5] = biological target: Ras-related C3 botulinum toxin substrate 1 (Homo sapiens) (UniProt P63000); assay: Inhibition of Rac1 in human MDA-MB-231 cells assessed as remaining enzyme activity at 2 uM by Western blotting based pulldown assay (reference value: 100%); assay type: cell-based
MCF-10A [6] = assay: Cytotoxicity against human MCF10A cells assessed as reduction in cell viability at 25 uM incubated for 24 hrs by MTT assay; assay type: cell-based
[7] = tested on: Ras-related C3 botulinum toxin substrate 1 (Homo sapiens), P63000 [G15A]; assay: Inhibition of glutathione agarose conjugated Rac1 G15A mutant (unknown origin) in assessed as reduction in purified Tiam-1 DH/PH domain association with Rac1 G15A mutant at 40 uM by Western blotting based pulldown assay relative to control
[8] = biological target: Cell division control protein 42 homolog (Homo sapiens) (UniProt P60953); assay: Inhibition of Cdc42 in human MDA-MB-435 cells assessed as remaining enzyme activity at 4 uM by Western blotting based pulldown assay (reference value: 100%); assay type: cell-based
[9] = Toxicity in athymic nude mouse assessed as effect on body weight at 1 mg/kg, ip dosed once week for 9 weeks; assay type: organism-based; conditions: in vivo, 1512 h
[10] = biological target: Ras-related C3 botulinum toxin substrate 1 (Homo sapiens) (UniProt P63000); assay: Inhibition of Rac1 in human MDA-MB-435 cells assessed as remaining enzyme activity at 2 uM by Western blotting based pulldown assay (reference value: 100%); assay type: cell-based
[11] = biological target: Transforming protein RhoA (Homo sapiens) (UniProt P61586); assay: Activation of RhoA in human MDA-MB-435 cells assessed as remaining enzyme activity at 10 uM by Western blotting based pulldown assay (reference value: 100%); assay type: cell-based
[12] = biological target: Transforming protein RhoA (Homo sapiens) (UniProt P61586); assay: Activation of RhoA in human MDA-MB-435 cells assessed as remaining enzyme activity at 2 uM by Western blotting based pulldown assay (reference value: 100%); assay type: cell-based
MDA-MB-231 [13] = assay: Cytotoxicity against human MDA-MB-231 cells assessed as reduction in cell viability at 1 to 2 uM incubated for 24 hrs by MTT assay; assay type: functional, cell-based
[14] = biological target: Cell division control protein 42 homolog (Homo sapiens) (UniProt P60953); assay: Inhibition of Cdc42 in human MDA-MB-435 cells assessed as inhibition of lamellipodia formation at 2 to 4 uM incubated for 24 hrs rhodamine phalloidin staining based fluorescence microscopy; assay type: cell-based
[15] = biological target: Cell division control protein 42 homolog (Homo sapiens) (UniProt P60953); assay: Inhibition of Cdc42 in human MDA-MB-435 cells assessed as remaining enzyme activity at 10 uM by Western blotting based pulldown assay (reference value: 100%); assay type: cell-based
[16] = tested on: Ras-related C3 botulinum toxin substrate 1 (Homo sapiens), P63000 [G15A]; assay: Inhibition of glutathione agarose conjugated Rac1 G15A mutant (unknown origin) in assessed as reduction in purified Tiam-1 DH/PH domain association with Rac1 G15A mutant by measuring average Tiam-1 level in pulldown at 8 uM by Western blotting based pulldown assay (reference value: 100%); set-up: scale not given: the % may be the effect or the level left
[17] = Toxicity in athymic nude mouse assessed as effect on body weight at 1 mg/kg, po dosed once week for 9 weeks; assay type: organism-based; conditions: in vivo, 1512 h
[18] = tested on: Ras-related C3 botulinum toxin substrate 1 (Homo sapiens), P63000 [G15A]; assay: Inhibition of glutathione agarose conjugated Rac1 G15A mutant (unknown origin) in assessed as reduction in purified Tiam-1 DH/PH domain association with Rac1 G15A mutant by measuring average Tiam-1 level in pulldown at 25 uM by Western blotting based pulldown assay (reference value: 100%); set-up: scale not given: the % may be the effect or the level left
[19] = biological target: Cell division control protein 42 homolog (Homo sapiens) (UniProt P60953); assay: Inhibition of Cdc42 in human MDA-MB-435 cells assessed as remaining enzyme activity at 2 uM by Western blotting based pulldown assay (reference value: 100%); assay type: cell-based
MDA-MB-435 [20] = assay: Cytotoxicity against human MDA-MB-435 cells assessed as reduction in cell viability at 25 uM incubated for 24 hrs by MTT assay; assay type: functional, cell-based
[21] = biological target: Cell division control protein 42 homolog (Homo sapiens) (UniProt P60953); assay: Inhibition of Cdc42 in human MDA-MB-231 cells assessed as inhibition of lamellipodia formation at 2 to 4 uM incubated for 24 hrs rhodamine phalloidin staining based fluorescence microscopy; assay type: cell-based
[22] = biological target: Transforming protein RhoA (Homo sapiens) (UniProt P61586); assay: Activation of RhoA in human MDA-MB-435 cells assessed as remaining enzyme activity at 5 uM by Western blotting based pulldown assay (reference value: 100%); assay type: cell-based
[23] = biological target: Ras-related C3 botulinum toxin substrate 1 (Homo sapiens) (UniProt P63000); assay: Potency index, ratio of IC50 for NSC-23766 to IC50 for test compound for inhibition of Rac1 in human MDA-MB-435 cells incubated for 24 hrs by G-LISA Rac1 activation assay; assay type: cell-based
MDA-MB-231 [24] = assay: Cytotoxicity against human MDA-MB-231 cells assessed as reduction in cell viability at 25 uM incubated for 24 hrs by MTT assay; assay type: functional, cell-based
[25] = biological target: Transforming protein RhoA (Homo sapiens) (UniProt P61586); assay: Activation of RhoA in human MDA-MB-435 cells assessed as remaining enzyme activity at 4 uM by Western blotting based pulldown assay (reference value: 100%); assay type: cell-based
[26] = biological target: Ras-related C3 botulinum toxin substrate 1 (Homo sapiens) (UniProt P63000); assay: Inhibition of Rac1 in human MDA-MB-435 cells assessed as remaining enzyme activity at 4 uM by Western blotting based pulldown assay (reference value: 100%); assay type: cell-based
MDA-MB-435 [27] = assay: Cytotoxicity against human MDA-MB-435 cells assessed as reduction in cell viability at 1 to 2 uM incubated for 24 hrs by MTT assay; assay type: functional, cell-based
MCF-10A [28] = assay: Cytotoxicity against human MCF10A cells assessed as reduction in cell viability at 1 to 2 uM incubated for 24 hrs by MTT assay; assay type: cell-based
[29] = biological target: Ras-related C3 botulinum toxin substrate 1 (Homo sapiens) (UniProt P63000); assay: Inhibition of Rac1 in human MDA-MB-435 cells assessed as reduction in PAK1 […] phosphorylation at 2 to 4 uM by Western blot analysis; assay type: cell-based
[30] = biological target: Ras-related C3 botulinum toxin substrate 1 (Homo sapiens) (UniProt P63000); assay: Inhibition of Rac1 in human MDA-MB-231 cells assessed as remaining enzyme activity at 4 uM by Western blotting based pulldown assay (reference value: 100%); assay type: cell-based
[31] = Toxicity in athymic nude mouse assessed as effect on gross indications of toxicity at 1 mg/kg, po dosed once week for 9 weeks; assay type: organism-based; conditions: in vivo, 1512 h
[32] = tested on: Ras-related C3 botulinum toxin substrate 1 (Homo sapiens), P63000 [G15A]; assay: Inhibition of glutathione agarose conjugated Rac1 G15A mutant (unknown origin) in assessed as reduction in purified Tiam-1 DH/PH domain association with Rac1 G15A mutant by measuring average Tiam-1 level in pulldown at 4 uM by Western blotting based pulldown assay (reference value: 100%); set-up: scale not given: the % may be the effect or the level left

Transforming protein RhoA (Homo sapiens), sequence (P61586 whole entry): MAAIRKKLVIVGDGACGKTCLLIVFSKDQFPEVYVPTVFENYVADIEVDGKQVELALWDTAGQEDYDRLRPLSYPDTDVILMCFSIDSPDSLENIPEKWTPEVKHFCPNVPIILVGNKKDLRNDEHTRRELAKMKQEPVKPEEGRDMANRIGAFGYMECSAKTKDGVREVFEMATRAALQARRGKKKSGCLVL
Cell division control protein 42 homolog (Homo sapiens), sequence (P60953 whole entry, looked up, the tested form may be a part): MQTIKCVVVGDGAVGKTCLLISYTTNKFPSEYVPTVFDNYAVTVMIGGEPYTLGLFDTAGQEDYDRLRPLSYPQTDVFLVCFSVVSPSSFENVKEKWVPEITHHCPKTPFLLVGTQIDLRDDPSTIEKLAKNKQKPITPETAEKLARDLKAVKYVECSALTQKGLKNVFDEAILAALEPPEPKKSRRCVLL

**Q.** With `CCn1c2ccccc2c2cc(Nc3ccnc(NCCCN4CCOCC4)n3)ccc21` as the compound, how does the Activity [1] read?
**A.** 72%

**Q.** And the Activity [2]?
**A.** 42%

**Q.** And the inhibition [3]?
**A.** Active

**Q.** What about the Activity [4] of the same compound?
**A.** Non-Toxic

**Q.** And the Activity [5]?
**A.** 65%

**Q.** What about the Activity (MCF-10A [6]) of the same compound?
**A.** Toxic

**Q.** What about the inhibition [7] of the same compound?
**A.** Active

**Q.** What about the Activity [8] of the same compound?
**A.** 95%

**Q.** And the Activity [9]?
**A.** Non-Toxic

**Q.** And the Activity [10]?
**A.** 19%

**Q.** What about the Activity [11] of the same compound?
**A.** 123%

**Q.** What about the Activity [12] of the same compound?
**A.** 155%

**Q.** What about the Activity (MDA-MB-231 [13]) of the same compound?
**A.** inactive

**Q.** What about the inhibition [14] of the same compound?
**A.** inactive

**Q.** And the Activity [15]?
**A.** 25%

**Q.** What about the Activity [16] of the same compound?
**A.** 96%

**Q.** And the Activity [17]?
**A.** Non-Toxic

**Q.** And the Activity [18]?
**A.** 112%

**Q.** What about the Activity [19] of the same compound?
**A.** 104%

**Q.** What about the Activity (MDA-MB-435 [20]) of the same compound?
**A.** Active

**Q.** What about the inhibition [21] of the same compound?
**A.** inactive

**Q.** And the Activity [22]?
**A.** 125%

**Q.** And the Ratio IC50 [23]?
**A.** 100

**Q.** And the Activity (MDA-MB-231 [24])?
**A.** Active

**Q.** And the Activity [25]?
**A.** 128%

**Q.** And the Activity [26]?
**A.** 7%

**Q.** What about the Activity (MDA-MB-435 [27]) of the same compound?
**A.** inactive

**Q.** And the Activity (MCF-10A [28])?
**A.** Non-Toxic

**Q.** What about the inhibition [29] of the same compound?
**A.** Active

**Q.** What about the Activity [30] of the same compound?
**A.** 35%

**Q.** What about the Activity [31] of the same compound?
**A.** Non-Toxic

**Q.** What about the Activity [32] of the same compound?
**A.** 123%
